Values quoted from earlier work, collected in patent US12390507B1, “Method to provide consistent product batches active components for alkaloids of kratom plants” (priority 2021, dated 2025).

What was measured:
α2-adrenergic receptor = settings: α2 versus α1
α1-adrenergic receptor = settings: α1 versus α2 adrenergic receptor antagonist

Molecule: CC[C@@H]1CN2CCc3c([nH]c4cccc(O)c34)[C@@H]2C[C@@H]1/C(=C\OC)C(=O)OC [9-Hydroxycorynantheidine]
- maximum inhibition of electrically stimulated guinea-pig ileum contraction (opioid receptors; compared with mitragynine): weaker than that of mitragynine
- effect on electrically stimulated guinea-pig ileum contraction (opioid receptors; one study, quoted): inhibited
- effect of naloxone on the inhibition of guinea-pig ileum contraction (opioid receptors; with naloxone): antagonized by naloxone

Molecule: COC(=O)[C@H]1[C@H]2C[C@H]3c4[nH]c5ccccc5c4CCN3C[C@H]2CC[C@@H]1O [rauwolscine]
- higher affinity for the α2-adrenergic receptor over the α1-adrenergic (α2-adrenergic receptor): 30 ×

Molecule: COC(=O)[C@@H]1[C@H]2C[C@H]3c4[nH]c5ccccc5c4CCN3C[C@@H]2CC[C@@H]1O [yohimbine]
- higher affinity for the α2-adrenergic receptor over the α1-adrenergic (α2-adrenergic receptor): 30 ×

Molecule: Corynantheidine
- greater affinity for the α1-adrenergic receptor (over α2-adrenergic receptor) (α1-adrenergic receptor): 10 ×
